According to patent US20060063782A1, “3-Hetero arylmethoxy ! pyridines and their analogues as p38 map kinase inhibitors” (priority 2002, published 2006):

tested on: LPS-induced TNF-α production in THP-1 cells; experiment: Inhibition of LPS-Induced TNF-α Production in THP-1 Cells (ELISA); assay type: cell-based; conditions: Homo sapiens; PMA-treated THP-1 cells, 1 μg/ml LPS, 6 hours, TNF-α by ELISA; read-out: IC50 (inhibition of TNF-α release)
Method: THP-1 cells were suspended in culture medium containing 50 ng/ml PMA (SIGMA), seeded into a 96-well tissue culture plate (IWAKI) at 1×10^5 cells/well (100 μl/well) and incubated as described above for approximately 48 hours. The medium was then aspirated, the wells washed twice in Phosphate Buffered Saline and 1 μg/ml LPS (SIGMA) in culture medium was added (200 μl/well).
Test compounds were reconstituted in DMSO (SIGMA) and then diluted with the culture medium such that the final DMSO concentration was 0.1%. Twenty microlitre aliquots of test solution or medium only with DMSO (solvent control) were added to triplicate wells immediately following LPS addition, and incubated for 6 hours as described above. Culture supernatants were collected and the amount of human TNF-α present was determined by ELISA (R&D Systems) performed according to the manufacturer's instructions.
The IC50 was defined as the concentration of the test compound corresponding to half maximal inhibition of the control activity by non-linear regression analysis of their inhibition curves.

| IC50 | SMILES |
| --- | --- |
| 0.21 µM | O=C(Nc1ccc(Cl)c(COc2cnccn2)c1)c1cc(F)cc(N2CCOCC2)c1 [Compound 94, N-[4-Chloro-3-(pyrazin-2-yloxymethyl)-phenyl]-3-fluoro-5-morpholin-4-yl-benzamide] |
| 0.97 µM | O=C(Nc1ccc(Cl)c(COc2ccc(NCCO)nc2)c1)c1cc(F)cc(N2CCOCC2)c1 [Compound 76, N-{4-Chloro-3-[6-(2-hydroxy-ethylamino)-pyridin-3-yloxymethyl]-phenyl}-3-fluoro-5-morpholin-4-yl-benzamide] |

target: p38 MAP kinase (Homo sapiens, UniProt Q16539); experiment: p38 MAP Kinase Assay (33P incorporation into myelin basic protein, filter plate); assay type: biochemical; conditions: Table 1; MKK6-activated p38, MBP substrate, 50 minutes
Sequence (Q16539 whole entry): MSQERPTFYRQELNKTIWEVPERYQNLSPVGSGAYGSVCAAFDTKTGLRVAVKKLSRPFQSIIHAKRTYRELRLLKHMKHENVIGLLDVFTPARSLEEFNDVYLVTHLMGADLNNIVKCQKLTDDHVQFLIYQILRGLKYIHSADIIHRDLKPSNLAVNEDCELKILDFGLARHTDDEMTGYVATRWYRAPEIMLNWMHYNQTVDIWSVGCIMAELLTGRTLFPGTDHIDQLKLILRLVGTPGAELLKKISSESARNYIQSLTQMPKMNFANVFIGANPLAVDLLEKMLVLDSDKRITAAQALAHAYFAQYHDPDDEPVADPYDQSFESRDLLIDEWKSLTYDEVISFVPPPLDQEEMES

| SMILES | IC50 |
| --- | --- |
| O=C(Nc1ccc(Cl)c(COc2ccc(NCCO)nc2)c1)c1cc(F)cc(N2CCOCC2)c1 [Compound 76, N-{4-Chloro-3-[6-(2-hydroxy-ethylamino)-pyridin-3-yloxymethyl]-phenyl}-3-fluoro-5-morpholin-4-yl-benzamide] | < 2 µM |
| O=C(Nc1ccc(Cl)c(COc2cccnc2)c1)Oc1ccccc1 [Compound 79, [4-Chloro-3-(pyridin-3-yloxymethyl)-phenyl]-carbamic acid phenyl ester] | < 20 µM |

Now from value to compound:

| IC50 | SMILES |
| --- | --- |
| < 1000 µM | COc1ccccc1COc1cccnc1N [Compound 6, 2-amino-3-(2-methoxybenzyloxy)pyridine] |
| < 1000 µM | Nc1ncccc1OCc1c(F)cc(F)cc1F [Compound 32] |
| < 1000 µM | Nc1ccncc1OCc1cccc2ccccc12 [Compound 46] |
| < 2 µM | CC(C)(C)c1cccc(C(=O)Nc2ccc(Cl)c(COc3cccnc3)c2)c1 [Compound 65, 3-tert-Butyl-N-[4-chloro-3-(pyridin-3-yloxymethyl)-phenyl]-benzamide] |

same assay, conditions: Table 2; MKK6-activated p38, MBP substrate, 50 minutes

| SMILES | IC50 |
| --- | --- |
| O=C(Nc1ccc(Cl)c(COc2cnccn2)c1)c1cc(F)cc(N2CCOCC2)c1 [Compound 94, N-[4-Chloro-3-(pyrazin-2-yloxymethyl)-phenyl]-3-fluoro-5-morpholin-4-yl-benzamide] | < 2 µM |
| Cc1cc(C)c2nc(NC(=O)Nc3ccc(F)c(COc4cnccn4)c3)sc2c1 [Compound 116, 1-(4,6-Dimethyl-benzothiazol-2-yl)-3-[4-fluoro-3-(pyrazin-2-yloxymethyl)-phenyl]-urea] | < 1000 µM |
| O=C(Nc1ccc(F)c(COc2cnccn2)c1)Nc1cc(C2CCCO2)nn1-c1ccc(F)cc1 (stereo not shown) [Compound 161, 1-[2-(4-Fluoro-phenyl)-5-(tetrahydro-furan-2-yl)-2H-pyrazol-3-yl]-3-[4-fluoro-3-(pyrazin-2-yloxymethyl)-phenyl]-urea] | < 2 µM |

The next lines start with the values.

| IC50 | SMILES |
| --- | --- |
| < 2 µM | Cc1nc2sccn2c1C(=O)Nc1ccc(F)c(COc2cnccn2)c1 [Compound 144, 6-Methyl-imidazo[2,1-b]thiazole-5-carboxylic acid [4-fluoro-3-(pyrazin-2-yloxymethyl)-phenyl]-amide] |
| < 2 µM | O=C(Nc1ccc(F)c(COc2cnccn2)c1)Nc1cc(-c2ccccc2)[nH]n1 [Compound 118, 1-[4-Fluoro-3-(pyrazin-2-yloxymethyl)-phenyl]-3-(5-phenyl-1H-pyrazol-3-yl)-urea] |
